Measured values as given in patent US20060189512A1, “Compositions containing botanical extracts rich in phlorizin and methods for using such compositions in blood glucose modification and to affect aging” (priority 2005, published 2006).

Biological target: T1, SIRT1 (histone deacetylase) (Homo sapiens, UniProt Q96EB6)
T1 construct: purchased BIOMOL Research Laboratories, Inc., Plymouth Meeting, Pa
T1 sequence (Q96EB6 1-747): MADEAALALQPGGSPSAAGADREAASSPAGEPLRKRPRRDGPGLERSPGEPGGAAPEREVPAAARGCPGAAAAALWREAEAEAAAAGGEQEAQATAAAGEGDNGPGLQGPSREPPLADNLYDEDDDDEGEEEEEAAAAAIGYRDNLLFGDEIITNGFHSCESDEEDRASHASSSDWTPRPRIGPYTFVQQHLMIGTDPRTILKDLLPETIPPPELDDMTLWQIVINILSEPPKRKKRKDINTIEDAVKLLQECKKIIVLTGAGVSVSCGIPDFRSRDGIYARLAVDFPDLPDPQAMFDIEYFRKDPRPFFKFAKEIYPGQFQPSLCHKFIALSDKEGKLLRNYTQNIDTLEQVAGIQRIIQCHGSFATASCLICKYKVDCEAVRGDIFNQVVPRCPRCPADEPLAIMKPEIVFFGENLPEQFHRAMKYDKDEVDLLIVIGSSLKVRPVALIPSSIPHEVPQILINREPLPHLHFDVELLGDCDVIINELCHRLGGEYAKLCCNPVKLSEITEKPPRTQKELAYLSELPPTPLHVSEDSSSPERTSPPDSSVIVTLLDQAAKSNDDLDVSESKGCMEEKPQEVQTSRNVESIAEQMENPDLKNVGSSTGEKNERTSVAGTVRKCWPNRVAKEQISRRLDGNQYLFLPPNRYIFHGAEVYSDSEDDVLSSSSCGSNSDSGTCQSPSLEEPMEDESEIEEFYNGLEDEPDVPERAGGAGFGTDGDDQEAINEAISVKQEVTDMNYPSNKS
Experiment: Cell-based fluorescence deacetylase assay, SIRT1 Fluorimetric Drug Discovery Kit (BIOMOL)
Source text: A cell-based fluorescence deacetylase assay, SIRT1 Fluorimetric Drug Discovery Kit, obtained from BIOMOL Research Laboratories, Inc., Plymouth Meeting, Pa. was used to measure the effects of various polyphenols in apple extract on histone deacetylase activity.

| Histone deacetylase activity (concentration 100 micromolar) | Compound | Histone deacetylase activity (concentration 500 micromolar) |
| --- | --- | --- |
|  | O=C(CCc1ccc(O)cc1)c1c(O)cc(O)cc1O [Phloretin] | 1.94 × baseline |
| 1.36 × baseline | O=C(CCc1ccc(O)cc1)c1c(O)cc(O)cc1O[C@@H]1O[C@H](CO)[C@@H](O)[C@H](O)[C@H]1O [Phlorizin] |  |
|  | O=c1c(O)c(-c2ccc(O)c(O)c2)oc2cc(O)cc(O)c12 [Quercetin] | 4.59 × baseline |
|  | Catechins | 1.26-1.53 × baseline |
